Measurements: publication PMC10820527, “Synthesis, Characterization, and Investigation of Anti-Inflammatory and Cytotoxic Activities of Novel Thiourea Derivatives of Naproxen” (Pharmaceutics, 2023)
Where two headings read alike, the source gives them in different places.

What was measured:
5-LOX = biological target: T1, 5-LOX (Homo sapiens, UniProt P09917); parameters: method as in PMID 37242450; conditions: among compounds 1–5, previously published study ref 37; cited from earlier work
T1 construct: purchased Abcam
T1 sequence (P09917 1-674): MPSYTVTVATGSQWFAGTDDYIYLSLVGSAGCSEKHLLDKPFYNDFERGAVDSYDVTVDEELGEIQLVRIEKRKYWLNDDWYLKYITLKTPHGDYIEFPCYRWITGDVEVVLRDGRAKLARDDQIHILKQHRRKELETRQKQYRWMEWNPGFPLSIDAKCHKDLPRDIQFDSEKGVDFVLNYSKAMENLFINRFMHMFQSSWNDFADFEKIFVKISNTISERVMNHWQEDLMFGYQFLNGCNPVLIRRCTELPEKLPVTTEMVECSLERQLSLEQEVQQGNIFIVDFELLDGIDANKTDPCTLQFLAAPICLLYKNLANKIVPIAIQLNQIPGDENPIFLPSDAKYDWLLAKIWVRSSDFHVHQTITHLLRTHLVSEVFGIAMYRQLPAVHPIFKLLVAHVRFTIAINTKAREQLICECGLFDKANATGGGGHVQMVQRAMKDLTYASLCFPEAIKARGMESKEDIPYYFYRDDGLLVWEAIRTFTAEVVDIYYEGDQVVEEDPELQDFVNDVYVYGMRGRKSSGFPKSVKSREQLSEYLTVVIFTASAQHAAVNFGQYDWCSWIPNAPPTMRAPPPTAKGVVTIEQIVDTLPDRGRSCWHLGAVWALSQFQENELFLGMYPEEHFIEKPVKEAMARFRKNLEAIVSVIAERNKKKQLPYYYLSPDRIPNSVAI

HeLa = test: MTT cytotoxicity assay, HeLa; assay type: cell-based, human; conditions: mean ± SD
Experimental: (§1) Three cancer cell lines (MDA-MB-231, HCT116 and HeLa; i.e., human breast cancer cells, human colorectal cancer cells, and human cervical cancer cells, respectively), and one non-malignant fibroblast MRC-5 cell line (control) were used in this study. The American Type Cell Collection (ATCC, Manassas, VA, USA) provided all examined cell lines. The cells were grown in a complete medium made up of high-glucose DMEM media supplemented with 10% fetal bovine serum and […] L-glutamine (both from Sigma-Aldrich, USA). The cells were cultured in 25 cc flasks (Thermo Fischer Scientific, Waltham, MA, USA) at 37 °C with 100% humidity in a 5% CO2 atmosphere.
(§2) The MTT test was used to assess the cytotoxicity of compounds 1–14 [44]. The cytotoxicity of naproxen was also investigated due to its clinical use and structural similarity. Throughout the exponential development period, cells were taken from culture flasks and counted, and 5 × 10^3 cells/well were planted into 96-well culture plates. Following that, the cell lines were treated with varying doses of the investigated chemicals (1–14), naproxen ([…]), and fresh complete media as a control. All evaluated cells were incubated for 24, 48, and 72 h at 37 °C in an environment containing 5% CO2 and 100% humidity. Following incubation, each well’s culture media was taken out, each well received an addition of MTT solution at a final concentration of 0.5 mg/mL, and the cells were left to incubate for an additional four hours. The MTT solution was then withdrawn carefully, and the formazan crystals were dissolved in DMSO. After shaking the plates for 10 min, absorbance at 595 nm was measured using a multiplate reader (Zenyth 3100, Anthos Labtec Instruments, Salzburg, Austria). All concentrations of the tested compounds were performed in three separate wells of the microtiter plates and in three separate experiments. The results were reported as a ratio to the control value, untreated cells. IC50 values were also determined using Microsoft Office Excel 2021. The percentage of viable cells was estimated by dividing the readout absorbance value in the wells containing treated cells by the average absorbance value measured in the wells containing untreated cells, and multiplying the result by 100 [44]. % of the viable cells = ((absorbance of treated cell-absorbance of blank)/(absorbance of untreated cell-absorbance of blank)) × 100(3)

[1] = system: MRC-5 fibroblast cell line; test: MTT cytotoxicity assay, MRC-5; assay type: cell-based; conditions: for IC50: mean ± SD
Experimental: as §1, §2

HCT 116 = test: MTT cytotoxicity assay, HCT 116; assay type: cell-based, human; conditions: for IC50: mean ± SD
Experimental: as §1, §2

MDA-MB-231 = test: MTT cytotoxicity assay, MDA-MB-231; assay type: cell-based, human; conditions: mean ± SD
Experimental: as §1, §2

[2] = system: carrageenan-induced rat paw edema; test: Carrageenan-induced rat paw edema model; assay type: in vivo; conditions: for Rat Paw Thickness: mean ± SD; for inhibition in vivo at 2.5 mg/kg / inhibition in vivo at 5 mg/kg / inhibition in vivo at 10 mg/kg: Rattus norvegicus
Experimental: The Carrageenan-induced rat paw edema model was used to assess the anti-inflammatory potential of novel compounds 8–14. Induction of inflammation was performed in all animals by intraplantar injection of […] 0.5% carrageenan saline into the left hind paw.
Animals (n = 200) were randomly divided into the following groups: control groups, that received either 1% DMSO or naproxen, and experimental groups, that received the novel compounds 8–14.
Control groups included DMSO and naproxen groups. Rats belonging to the DMSO group received 1% DMSO in the same volume as the compounds 8–14, 60 min before carrageenan injection. Moreover, naproxen groups included rats that were subjected to naproxen treatment in three doses: 2.5 mg/kg, 5 mg/kg, and 10 mg/kg. Naproxen was applied in the same manner as 1% DMSO.
Experimental groups included rats that were treated with compounds 8–14 and they were divided into three subgroups depending on the applied dose: 2.5 mg/kg, 5 mg/kg, and 10 mg/kg. The examined compounds were dissolved in 1% DMSO prior to treatment and applied to rats 60 min before inducing inflammation, i.e., before carrageenan injection. Doses of naproxen and investigated compounds were defined based on our previously published research.
In order to quantify the anti-inflammatory effects of the tested compounds, left paw thickness was measured at specific time points: prior to inflammation induction (moment 0) and 1, 2, 3, and 4 h (moments 1, 2, 3, and 4) following carrageenan injection. Tissue thickness was measured in the middle of the rat paw using a Digital Vernier caliper (Aerospace, China). The percentage of inhibition of paw edema after treatment with different agents was calculated according to the formula, Equation (2):% Inhibition = 100 × [1 − (Yt/Yc)](2) where Yt = average increase in paw thickness in the treated group of rats between two measurement moments, and Yc = average increase in paw thickness in the untreated group of rats between two measurement moments.

[3] = system: MCF-7, MDA-MB-231, HeLa, and HCT-116; conditions: cited from earlier work
[4] = read-out: IC50 (cytotoxic activity of reference drugs), range over MCF-7, MDA-MB-231, HeLa, and HCT-116

COc1cccc(NC(=S)NC(=O)[C@@H](C)c2ccc3cc(OC)ccc3c2)c1 [Compound 4]
5-LOX inhibition (in words) (5-LOX): strongest 5-LOX inhibition | IC50 (HeLa; 24 h): > 200 µM | IC50 (HeLa; 48 h): 101 ± 12.2 µM | IC50 (HeLa; 72 h): 90.8 ± 8.3 µM | IC50 ([1]; 24 h): > 200 µM | IC50 ([1]; 48 h): > 200 µM | IC50 ([1]; 72 h): > 200 µM | Cytotoxic effect against the HCT 116 cell line (in words) (HCT 116): moderate cytotoxic effects | IC50 (HCT 116; 48 h): 106 ± 12.9 µM | IC50 (HCT 116; 72 h): 71.6 ± 9.9 µM | IC50 (MDA-MB-231; 24 h): > 200 µM | IC50 (MDA-MB-231; 48 h): > 200 µM | IC50 (MDA-MB-231; 72 h): 110 ± 12.9 µM

COc1ccc2cc([C@H](C)C(=O)O)ccc2c1 [Naproxen, naproxen]
IC50 (HeLa; Homo sapiens, HeLa, 24 h): > 200 µM | IC50 (HeLa; Homo sapiens, HeLa, 48 h): > 200 µM | IC50 (HeLa; Homo sapiens, HeLa, 72 h): > 200 µM | Effect on the viability of the MRC-5 fibroblast cell line (in words) [1]: insignificant effect | IC50 ([1]; Homo sapiens, MRC5, 24 h): > 200 µM | IC50 ([1]; Homo sapiens, MRC5, 48 h): > 200 µM | IC50 ([1]; Homo sapiens, MRC5, 72 h): > 200 µM | Rat Paw Thickness ([2]; 2.5 mg/kg, 1 h after carrageenan): 6.35 ± 0.15 mm | Rat Paw Thickness ([2]; 2.5 mg/kg, 2 h after carrageenan): 6.02 ± 0.15 mm | Rat Paw Thickness ([2]; 2.5 mg/kg, 3 h after carrageenan): 5.75 ± 0.20 mm | Rat Paw Thickness ([2]; 2.5 mg/kg, 4 h after carrageenan): 5.18 ± 0.20 mm | Rat Paw Thickness ([2]; 5.0 mg/kg, 1 h after carrageenan): 6.02 ± 0.20 mm | Rat Paw Thickness ([2]; 5.0 mg/kg, 2 h after carrageenan): 5.52 ± 0.30 mm | Rat Paw Thickness ([2]; 5.0 mg/kg, 3 h after carrageenan): 5.22 ± 0.30 mm | Rat Paw Thickness ([2]; 5.0 mg/kg, 4 h after carrageenan): 4.98 ± 0.24 mm | Rat Paw Thickness ([2]; 10.0 mg/kg, 1 h after carrageenan): 5.88 ± 0.23 mm | Rat Paw Thickness ([2]; 10.0 mg/kg, 2 h after carrageenan): 5.55 ± 0.45 mm | Rat Paw Thickness ([2]; 10.0 mg/kg, 3 h after carrageenan): 5.35 ± 0.32 mm | Rat Paw Thickness ([2]; 10.0 mg/kg, 4 h after carrageenan): 4.95 ± 0.35 mm | inhibition in vivo at 2.5 mg/kg ([2]; 2.5 mg/kg, 1 h): 19.7% | inhibition in vivo at 2.5 mg/kg ([2]; 2.5 mg/kg, 2 h): 25.8% | inhibition in vivo at 2.5 mg/kg ([2]; 2.5 mg/kg, 3 h): 26.1% | inhibition in vivo at 2.5 mg/kg ([2]; 2.5 mg/kg, 4 h): 46.7% | inhibition in vivo at 5 mg/kg ([2]; 5.0 mg/kg, 1 h): 27.9% | inhibition in vivo at 5 mg/kg ([2]; 5.0 mg/kg, 2 h): 42.4% | inhibition in vivo at 5 mg/kg ([2]; 5.0 mg/kg, 3 h): 47.7% | inhibition in vivo at 5 mg/kg ([2]; 5.0 mg/kg, 4 h): 51.1% | inhibition in vivo at 10 mg/kg ([2]; 10.0 mg/kg, 1 h): 36.1% | inhibition in vivo at 10 mg/kg ([2]; 10.0 mg/kg, 2 h): 43.9% | inhibition in vivo at 10 mg/kg ([2]; 10.0 mg/kg, 3 h): 45.9% | inhibition in vivo at 10 mg/kg ([2]; 10.0 mg/kg, 4 h): 57.8% | IC50 (HCT 116; Homo sapiens, HCT-116, 24 h): > 200 µM | IC50 (HCT 116; Homo sapiens, HCT-116, 48 h): > 200 µM | IC50 (HCT 116; Homo sapiens, HCT-116, 72 h): > 200 µM | IC50 (MDA-MB-231; Homo sapiens, MDA-MB-231, 24 h, 24 h): > 200 µM | IC50 (MDA-MB-231; Homo sapiens, MDA-MB-231, 48 h, 48 h): > 200 µM | IC50 (MDA-MB-231; Homo sapiens, MDA-MB-231, 72 h, 72 h): > 200 µM

CN(C)C/C=C/C(=O)Nc1cc2c(Nc3ccc(F)c(Cl)c3)ncnc2cc1O[C@H]1CCOC1 [afatinib]
IC50 [3]: 6.2 to 11.4 µM

Cc1ccc(-c2cc(C(F)(F)F)nn2-c2ccc(S(N)(=O)=O)cc2)cc1 [celecoxib]
IC50 [3, 4]: 22.8 to 42.7 µM

COc1cccc2c1C(=O)c1c(O)c3c(c(O)c1C2=O)C[C@@](O)(C(=O)CO)C[C@@H]3O[C@H]1C[C@H](N)[C@H](O)[C@H](C)O1 [doxorubicin]
IC50 [3, 4]: 3.18 to 26.8 µM
